Source: patent US20260232578A1, “COMPOSITIONS AND METHODS FOR TRANSMUCOSAL ABSORPTION” (Tonix Pharma Limited, priority 2012, published 2026)
Like-named read-outs stand apart in the source and are kept apart here.

Assays:
histamine H1 receptor = biological target: T1, histamine H1 receptor (Homo sapiens, UniProt P35367); assay: G-protein-independent signal transduction, β-arrestin signaling; format: cell-based; settings: for IC50: H1, β-arrestin signaling, read-out: IC50, functional antagonist
T1 construct: expressed in transfected cells
T1 sequence (P35367 whole entry): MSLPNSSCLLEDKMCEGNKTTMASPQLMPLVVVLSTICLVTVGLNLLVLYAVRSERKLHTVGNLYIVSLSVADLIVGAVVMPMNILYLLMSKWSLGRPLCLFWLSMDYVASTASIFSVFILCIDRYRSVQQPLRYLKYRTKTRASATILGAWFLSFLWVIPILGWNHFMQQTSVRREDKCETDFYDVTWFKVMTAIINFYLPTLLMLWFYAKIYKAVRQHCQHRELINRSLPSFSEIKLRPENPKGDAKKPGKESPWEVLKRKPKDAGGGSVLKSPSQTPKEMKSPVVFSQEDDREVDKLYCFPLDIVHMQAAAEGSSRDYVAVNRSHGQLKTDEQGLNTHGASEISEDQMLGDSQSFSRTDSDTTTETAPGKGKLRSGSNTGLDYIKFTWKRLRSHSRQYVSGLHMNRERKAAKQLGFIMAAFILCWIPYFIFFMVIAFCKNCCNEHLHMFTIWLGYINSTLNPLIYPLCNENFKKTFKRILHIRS

5-HT2C = biological target: T2, 5-HT2C (Homo sapiens, UniProt P28335); assay: G-protein-dependent signal transduction, turnover of inositol triphosphate (IP); format: cell-based; settings: read-out: IC50 (nM) (Antagonist)
T2 construct: expressed in transfected cells
T2 sequence (P28335 33-458): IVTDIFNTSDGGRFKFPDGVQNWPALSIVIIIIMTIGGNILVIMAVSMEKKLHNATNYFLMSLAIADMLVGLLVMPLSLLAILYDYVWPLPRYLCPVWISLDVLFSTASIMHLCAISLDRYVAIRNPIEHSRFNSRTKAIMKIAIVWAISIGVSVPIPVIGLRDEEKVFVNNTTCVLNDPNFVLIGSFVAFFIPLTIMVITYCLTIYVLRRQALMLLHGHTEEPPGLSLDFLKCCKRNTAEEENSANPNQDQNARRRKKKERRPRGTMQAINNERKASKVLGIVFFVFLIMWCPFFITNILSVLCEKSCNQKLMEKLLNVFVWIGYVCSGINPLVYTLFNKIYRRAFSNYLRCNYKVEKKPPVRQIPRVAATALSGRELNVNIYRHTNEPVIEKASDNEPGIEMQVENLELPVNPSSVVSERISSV

muscarinic M2 receptor [1] = biological target: T3, muscarinic M2 receptor (Homo sapiens, UniProt P08172); assay: Equilibrium receptor binding, recombinant human receptor; parameters: expressed in transfected cells
T3 sequence (P08172 whole entry): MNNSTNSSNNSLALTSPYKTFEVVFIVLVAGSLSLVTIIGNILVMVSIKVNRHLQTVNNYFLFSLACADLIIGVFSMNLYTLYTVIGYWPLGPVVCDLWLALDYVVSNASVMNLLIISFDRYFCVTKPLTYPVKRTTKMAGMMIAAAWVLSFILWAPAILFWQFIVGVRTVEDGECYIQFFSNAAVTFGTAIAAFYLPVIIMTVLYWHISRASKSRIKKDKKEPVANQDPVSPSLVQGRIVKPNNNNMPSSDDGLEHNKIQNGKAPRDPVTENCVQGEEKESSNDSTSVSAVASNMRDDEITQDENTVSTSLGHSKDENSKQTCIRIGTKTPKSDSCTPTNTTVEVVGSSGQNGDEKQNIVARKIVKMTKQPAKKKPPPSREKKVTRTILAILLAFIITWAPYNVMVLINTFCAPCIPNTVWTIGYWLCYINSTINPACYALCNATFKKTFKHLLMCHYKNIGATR

muscarinic M2 receptor [2] = biological target: T3, muscarinic M2 receptor; assay: G-protein-dependent signal transduction, intracellular Ca2+ mobilization
in vivo = settings: female, beagle, dog; for AUC(0-t) / AUC(0-inf): 1.79 mg; for AUC(0-t): AUC0-24 h; for AUC(0-inf): AUC0-∞h
Procedure: The protocol was designed as outlined in Table 23.
The method requires a lithium heparinized plasma sample volume of 200 μl. The extraction is a liquid liquid extraction with hexane, and the extracts are injected using an HPLC system and an […] (Applied Biosystems) for the MS/MS detection, with a “Onyx monolithic Phenomenex C18 100×3.0 mm” column.
Concentrations of the samples are calculated using Watson® 7.2.0.03 directly from chromatograms after automatic integration by Analyst® 1.5.1 and expressed as ng/mL. Mean plasma concentrations will be calculated (when calculable, i.e. n>2) using individual concentrations and will be expressed with the corresponding standard deviation value and variation coefficients (when calculable, i.e. n>3) (with CV(%)=(SD/mean)×100). The individual plasma concentrations are tabulated for each dog and scheduled sampling time. Concentrations below the LLOQ are designated as “BLQ.” All BLQ concentrations are substituted by zero for calculation of the descriptive statistics of the concentrations.
Pharmacokinetic analysis is carried out using […]® (Version 4.3 (Thermo Electron Corporation)). An independent model (non compartmental analysis) is used. All BLQ values in the absorption phase are substituted by zero, except for BLQ values between evaluable concentrations, which are treated as missing values, before the calculation of the pharmacokinetic variables. The terminal BLQ values are ignored. The following pharmacokinetic parameters are calculated:
5 non-naive female dogs are used, each dog receiving the test substance by oral administration via nasogastric tube to the stomach (NG) administration, sublingual administration (SL), and by intravenous (IV) administration. There is a “wash-out” period of at least two weeks between each type of administration. Blood samples are drawn as follows:
A single NG dose of 0.14 mg/kg (under a volume of 5 ml/kg and a solution concentration of 0.028 mg/mL) is administered.
After a wash-out period of at least 2 weeks, dogs are sedated using propofol (6.5 mg/kg IV). They will be then given a single sublingual dose of 0.14 mg/kg (under a volume of 0.056 mL/kg and a solution concentration of 2.5 mg/mL).
After a wash-out period of at least 2 weeks, dogs are given a single IV dose of 0.14 mg/kg (under a volume of 1 mL/kg, bolus of approximately 30 sec, and a solution concentration of 0.14 mg/mL).
Blood sampling was designed to minimize animal suffering and to ensure the quality of the biological samples, and was adapted from basic procedures commonly used in studies performed in dogs. Serial blood samples (1 tube of approximately 5 mL) are collected from a jugular vein using vacuum tubes containing lithium heparin. After sealing each tube, the blood samples are manually agitated and stored on ice until centrifugation (within 30 minutes of sampling). The samples are centrifuged at 1500 g, at 4° C., for 10 minutes. The entire resultant plasma obtained from each tube is immediately transferred to suitably labeled polypropylene tubes (3 aliquots of plasma of at least 500 μl each), which are stored upright at approximately −80° C. and protected from light until bioanalysis.
The dogs are fasted overnight before each administration, and food is given to the dogs 4 hours after each treatment. […] In each of the three routes, a potassium phosphate buffer (pH 7.4) is used as the vehicle.
As referred to in Example 4, a study was designed in order to assess the effects of the compositions and methods of the invention. […] The pharmacokinetic parameters were then calculated. A summary of the study design is as follows:
Blood was collected in a fasted condition for all three routes of administration. […] Briefly, the method involved liquid-liquid extraction with hexane. The extracts were injected using an HPLC system and an API4000® (Applied Biosystems) for the MS/MS detection, with an “Onyx monolithic Phenomenex C18 100×3.0 mm” column.

[3] = cited from earlier work
[4] = humans, cited from earlier work

## CNCCC=C1c2ccccc2C=Cc2ccccc21 [norcyclobenzaprine, 3-(5H-dibenzo[a,d]cyclohepten-5-ylidene)-N-methyl-1-propanamine]
Histamine H1 receptor; H1
  Four parameter Hill slope (or fit slope) ratio; β-arrestin signaling: 1.09
Histamine H1 receptor
  IC50: 6.1 nM
5-HT2C
  IC50: 2000 nM
Muscarinic M2 receptor [1]
  Ki: 76 nM
Muscarinic M2 receptor [2]
  IC50: 33 nM

## CN(C)CCC=C1c2ccccc2C=Cc2ccccc21 [cyclobenzaprine, 3-(5H-dibenzo[a,d]cyclohepten-5-ylidene)-N,N-dimethyl-1-propanamine]
Histamine H1 receptor
  IC50: 2.7 nM
In vivo
  increase in bioavailability, sublingual vs PO: ~77 fold
  AUC(0-t): 127 ± 37.1 ng·h/mL
  AUC(0-inf): 129 ± 36.4 ng·h/mL
In vivo; bioavailability, conclusion
  bioavailability: ~100%
In vivo; iv, 0.14 mg/kg, plasma level
  concentration at 0.5 h: 52.3 ng/mL
  concentration at 6 h: 3.4 ng/mL
In vivo; iv
  AUC(0-t): 43.5 ± 3.77 ng·h/mL
  AUC(0-inf): 44.9 ± 4.15 ng·h/mL
5-HT2C
  IC50: 770 nM
[3]; Beagles, 1.76 mg/kg by mouth, 1 hr (Hucker)
  plasma level (radioactive equivalents): 1.14 μg/ml [equivalent]
[3]; Beagles, 1.76 mg/kg by mouth, 2 hr (Hucker)
  plasma level (radioactive equivalents): 1.46 μg/ml [equivalent]
[3]; Beagles, 1.76 mg/kg by mouth, 4 hr (Hucker)
  plasma level (radioactive equivalents): 0.92 μg/ml [equivalent]
[3]; Beagles, 1.76 mg/kg by mouth, 6 hr (Hucker)
  plasma level (radioactive equivalents): 0.58 μg/ml [equivalent]
[3]; Beagles, 1.76 mg/kg by mouth, 24 hr (Hucker)
  plasma level (radioactive equivalents): 0.10 μg/ml [equivalent]
[3]; Beagles, 1.76 mg/kg cyclobenzaprine HCl by mouth, 0.5 h (Hucker)
  plasma level (radioactive equivalents): 0.72 μg/ml [equivalent]
[3]; IV (saline), t 0.5 h
  plasma level, Hucker dose adjusted for 0.14 mg/kg: 34.1 ng/mL
[3]; IV (saline), t 1 h
  plasma level, Hucker dose adjusted for 0.14 mg/kg: 42.1 ng/mL
[3]; IV (saline), t 2 h
  plasma level, Hucker dose adjusted for 0.14 mg/kg: 47.6 ng/mL
[3]; IV (saline), t 4 h
  plasma level, Hucker dose adjusted for 0.14 mg/kg: 43.7 ng/mL
[3]; IV (saline), t 6 h
  plasma level, Hucker dose adjusted for 0.14 mg/kg: 35.7 ng/mL
[3]; IV (saline), t 24 h
  plasma level, Hucker dose adjusted for 0.14 mg/kg: 9.5 ng/mL
[3]; PO (gelatin capsule), t 0.5 h
  plasma level, Hucker dose adjusted for 0.14 mg/kg: 57.1 ng/mL
[3]; PO (gelatin capsule), t 1 h
  plasma level, Hucker dose adjusted for 0.14 mg/kg: 90.5 ng/mL
[3]; PO (gelatin capsule), t 2 h
  plasma level, Hucker dose adjusted for 0.14 mg/kg: 115.9 ng/mL
[3]; PO (gelatin capsule), t 4 h
  plasma level, Hucker dose adjusted for 0.14 mg/kg: 73.0 ng/mL
[3]; PO (gelatin capsule), t 6 h
  plasma level, Hucker dose adjusted for 0.14 mg/kg: 46.0 ng/mL
[3]; PO (gelatin capsule), t 24 h
  plasma level, Hucker dose adjusted for 0.14 mg/kg: 7.9 ng/mL
[3]; dogs, 2 mg/kg intravenous in saline, 0.5 h (Hucker)
  plasma level (radioactive equivalents): 0.43 μg/ml [equivalent]
[3]; dogs, 2 mg/kg intravenous in saline, 1 hr (Hucker)
  plasma level (radioactive equivalents): 0.53 μg/ml [equivalent]
[3]; dogs, 2 mg/kg intravenous in saline, 2 hr (Hucker)
  plasma level (radioactive equivalents): 0.60 μg/ml [equivalent]
[3]; dogs, 2 mg/kg intravenous in saline, 4 hr (Hucker)
  plasma level (radioactive equivalents): 0.55 μg/ml [equivalent]
[3]; dogs, 2 mg/kg intravenous in saline, 6 hr (Hucker)
  plasma level (radioactive equivalents): 0.45 μg/ml [equivalent]
[3]; dogs, 2 mg/kg intravenous in saline, 24 hr (Hucker)
  plasma level (radioactive equivalents): 0.12 μg/ml [equivalent]
[4]; IV bolus
  upper limit for the half-life of the first phase (distribution out of plasma): 3 to 5 min
[4]; within 3 to 30 minutes after IV bolus
  amount in plasma as % of the theoretical initial concentration (Cinit): less than 5%
